Assay results reported in patent US20190298721A1, “STABLE PRO-VITAMIN DERIVATIVE COMPOUNDS, PHARMACEUTICAL AND DIETARY COMPOSITIONS, AND METHODS OF THEIR USE” (CORNELL UNIVERSITY, priority 2016, published 2019).

Experiments:
[1] = Stability in AIN-93G mouse food pellets; type: physicochemical; conditions: for at least 10 weeks; pellets stored at room temperature or −20° C. (FIGS. 9A-B)
Procedure: Folic acid and (6S)-5-formyl, 10-formyl-tetrahydrofolate were shipped to Dyets, Bethlehem, Pa. as folate sources for the formulation of AIN-93G, a defined growth diet formulated for rodents by the American Institute of Nutrition. The stability of folic acid and (6S)-5-formyl, 10-formyl-tetrahydrofolate in food pellets was determined over a 10 week period.

[2] = test system: immortalized mouse fibroblasts (CHIP) cells; assay: Cell proliferation of immortalized mouse fibroblasts (CHIP) in Defined αMEM supplemented with folate forms (bright field image analysis); type: cell-based; conditions: range of concentrations, approximately three doublings, compared with Leucovorin and folic acid (FIG. 6B)
Procedure: (§1) HeLa cells and immortalized mouse fibroblasts (CHIP) cells were plated in 96-well plates, 1000 cells per well. Total cell number was monitored over time using bright field image analysis on a Celigo cytometer (Nexcelom, Inc.) according to manufacturers' protocols. Data was represented as average±standard deviation for 10 biological replicates per condition. Cells were cultured in Defined αMEM culture media (lacking folate, serine, glycine, methionine, nucleosides/nucleotides, and pyridoxine) which was supplemented with 200 μM methionine, 0.5 g/L pyridoxine, and varying concentrations of folic acid, (6S)-Leucovorin or novel folate derivative. Before plating for proliferation assays, HeLa cells and CHIP cells were cultured for three doublings in Defined αMEM lacking folate to deplete intracellular folates.

HeLa cells [3] = assay: Cell proliferation of HeLa cells in Defined αMEM supplemented with folate forms (bright field image analysis); type: cell-based; conditions: range of concentrations, approximately three doublings, compared with Leucovorin and folic acid (FIGS. 6A, 6C)
Procedure: as §1

[4] = Mice fed AIN-93G diet containing the folate source (growth, adverse symptoms); type: in vivo, mouse; conditions: for Mouse growth: AIN-93G diet with the compound as folate source, over at least an 8-week period
[5] = Chemical stability of folates incubated in Defined αMEM at 65° C., read out by L. casei assay; type: physicochemical; conditions: for Chemical stability relative to 5-methyltetrahydrofolate: 65° C., pH 7.2, Defined αMEM (FIG. 8); for Chemical stability (support of growth in the microbiological assay): after 24 hours incubation at 65° C., pH 7.2 (FIG. 8)
Procedure: Folic acid and various reduced folates were incubated in Defined αMEM (described above) in sterile Eppendorf tubes at 65° C. and sampled at 0, 0.5, 1, 2, 4, 8, and 24 hours. The sampled aliquots were immediately mixed with L. casei extraction buffer containing sodium ascorbate to protect folates from oxidative degradation and frozen at −80° C. The L. casei assay was performed as previously described (Suh et al., “Purification and Properties of a Folate-Catabolizing Enzyme,” J Biol. Chem. 275(45):35646-35655 (2000), which is hereby incorporated by reference in its entirety).

[6] = Acid stability (conversion to 5,10-methenyltetrahydrofolate); type: physicochemical; conditions: conversion to 5,10-methenyltetrahydrofolate in acid; no method described
HeLa cells [7] = assay: Total intracellular folate measurement in HeLa cells (L. casei microbiological assay); type: cell-based
Procedure: HeLa cells were cultured in Defined αMEM (as described above) lacking folate for two doublings to deplete cellular folates, then plated into 6-well plates (1000 cells/well) and cultured for two cell doublings with Defined αMEM culture media (described above) supplemented with 200 μM methionine, 0.5 g/L pyridoxine, and either 2 nM or 20 nM (6S)-Leucovorin or novel folate derivative. Total intracellular folates were quantified using a microbiological (Lactobacillus casei, or L. casei) assay as previously described (Suh et al., “Purification and Properties of a Folate-Catabolizing Enzyme,” J. Biol. Chem. 275(45):35646-35655 (2000), which is hereby incorporated by reference in its entirety). Data is represented as mean±SEM of three biological replicates per condition.

| Structure (SMILES) | Stability as a component of AIN-93G rodent food [1] | Mouse growth [4] | Chemical stability relative to 5-methyltetrahydrofolate [5] | Chemical stability relative to 5-methyltetrahydrofolate ([5]; 10-formyltetrahydrofolate) | Chemical stability (support of growth in the microbiological assay) [5] | further results |
| --- | --- | --- | --- | --- | --- | --- |
| Nc1nc2c(c(=O)[nH]1)N(C=O)[C@H](CN(C=O)c1ccc(C(=O)N[C@@H](CCC(=O)O)C(=O)O)cc1)CN2 [(6S)-5-formyl, 10-formyltetrahydrofolate] | completely stable | promote mouse growth | chemically more stable than 5-methyltetrahydrofolate | increased chemical stability relative to (6S) 5-methyltetrahydrofolate | – | Proliferation / support of cell growth ([2]; 10-formylTHF): support cell growth in a similar dose-response as (6S)-Leucovorin and are superior to folic acid; Proliferation / support of cell growth (HeLa cells [3]; 10-formylTHF): support cell growth in a similar dose-response as (6S)-Leucovorin and are superior to folic acid; Adverse symptoms ([4]; mice fed AIN-93G diet containing the compound for 8 weeks): without any adverse symptoms |
| Nc1nc2ncc(CNc3ccc(C(=O)N[C@@H](CCC(=O)O)C(=O)O)cc3)nc2c(=O)[nH]1 [folic acid, reference compound] | completely stable | promote mouse growth | – | – | continued to support growth | – |
| Nc1nc2c(c(=O)[nH]1)N(C=O)[C@@H](CNc1ccc(C(=O)N[C@@H](CCC(=O)O)C(=O)O)cc1)CN2 [(6S)-Leucovorin, (6S)-5-formyltetrahydrofolate, reference compound] | – | – | – | – | continued to support growth | Stability in acid [6]: unstable in acid |
| CN1c2c(nc(N)[nH]c2=O)NC[C@H]1CN(C=O)c1ccc(C(=O)N[C@@H](CCC(=O)O)C(=O)O)cc1 [(6S)-5-methyl, 10-formyltetrahydrofolate] | – | – | chemically more stable than 5-methyltetrahydrofolate | increased chemical stability relative to (6S) 5-methyltetrahydrofolate | – | Proliferation / support of cell growth ([2]; 10-formyl-THF): support cell growth in a similar dose-response as (6S)-Leucovorin and are superior to folic acid; Total cellular folate (HeLa cells [7]; HeLa cells cultured with 20 nM compound, compared with 2 nM (6S)-Leucovorin): equivalent to total cellular folate in HeLa cells cultured in 2 nM (6S)-Leucovorin; Total intracellular folate levels (HeLa cells [7]; HeLa cells, 2 nM or 20 nM folate form, (6S)-Leucovorin vs (6S)-5-methyl, 10-formyltetrahydrofolate (FIG. 7)): higher with (6S)-Leucovorin than with (6S)-5-methyl, 10-formyltetrahydrofolate; Proliferation / support of cell growth (HeLa cells [3]; 10-formyl-THF): support cell growth in a similar dose-response as (6S)-Leucovorin and are superior to folic acid |
| CN1c2c(nc(N)[nH]c2=O)NC[C@@H]1CNc1ccc(C(=O)N[C@@H](CCC(=O)O)C(=O)O)cc1 [5-methyl-tetrahydrofolate, (6S) 5-methyltetrahydrofolate, reference compound] | – | – | – | – | completely destroyed | – |
